Data set [1] deals with human embryo fibroblast (FSF). The data set can be described thus: MTT viability of normal human embryo fibroblast (FSF) cells. The following applies: peptide 10-200 μg/ml, 4 days, FIG. 1.
Procedure: (§2) In order to test toxicity of the synthesized NKC and NRC peptides on normal cells, each of the cultured human embryo fibroblast (FSF), human keratinocyte (HaCat) and human erythrocyte was treated with the synthesized peptide, and the viability of each cell was analyzed.
(§3) In detail, each 1×10^4 of FSF and HaCat cells was aliquoted to a 96-well plate, and cultured for 24 hrs. Subsequently, each of the synthesized peptides, a known anticancer peptide, buforin IIb, and a known non-cytotoxic peptide, magainin 2 was added thereto at a concentration of 10, 25, 50, 100 or 200 μg/ml, and then the cells were cultured for 4 days. Thereafter, MTT (3-[4,5-dimethylthiazol-2-yl]-2,5-diphenyltetrazolium bromide) was added, and color development was detected using a spectrophotometer to count the number of surviving cells. On the basis of this, viability of each cell was calculated (FIGS. 1 and 1b). In this connection, an experimental group treated with PBS only was used as a control group.
Data set [2] concerns human erythrocyte. The experiment in a line: Disruption of human erythrocytes (absorbance). Conditions: peptide 10-200 μg/ml, 30 min, FIG. 3.
Procedure: as §2
Meanwhile, PBS was added to erythrocytes obtained from the human blood, and diluted 1,000-fold. Each of the synthesized peptides, a known anticancer peptide, buforin IIb, and a known non-cytotoxic peptide, magainin 2 was added thereto at a concentration of 10, 25, 50, 100 or 200 μg/ml. After 30 min, disruption of erythrocytes was determined by the difference in absorbance using spectrometry (FIG. 3). In this connection, an experimental group treated with PBS only was used as a control group.
The subject of data set [3] is human keratinocyte (HaCat). The experiment in a line: MTT viability of normal human keratinocyte (HaCat) cells. The following applies: peptide 10-200 μg/ml, 4 days, FIG. 2.
Procedure: as §2, §3
Data set [4] relates to K-562 cancer cell line. The data set can be described thus: Anticancer activity on cancer cells lacking ganglioside (PMPP, MTT viability). The following applies: peptide 10 μg/ml, PMPP 0, 2 and 4 μM, 48 hrs, FIG. 16. The format is cell-based, human. As to the method:
In detail, the K-562 cancer cell line was aliquoted to each well of 96-well plate at a density of 1×10^4, and each well was treated with an inhibitor of ganglioside biosynthesis, PMPP at the concentration of 0, 2 and 4 μM, and then treated with 10 μg/ml of the peptides of the present invention, buforin IIb and magainin 2, followed by cultivation for 48 hrs. Cell viability was measured in the same manner as in Example 1 (MTT assay) (FIG. 16).

The subject of data set [5] is K-562 cancer cell line. The experiment in a line: Competitive binding assay with ganglioside, phosphatidylserine or heparin (MTT viability). The format is cell-based, human. Conditions: peptide 10 μg/ml, 48 hrs. The text has this:
Accordingly, the present inventors assumed that external addition of ganglioside, phosphatidylserine, and heparin to the cancer cell culture media causes dispersion of the peptides of the present invention in the cancer cell surface and the negatively charged materials added to the culture media, whereby the anticancer activity is reduced by the addition of negatively charged materials in a concentration-dependent manner.
In detail, the K-562 cancer cell line was aliquoted to each well of 96-well plate at a density of 1×10^4, and each well was treated with 1 to 100 μg/ml of heparin, phosphatidylserine or ganglioside, and 10 μg/ml of the peptides of the present invention, buforin IIb and magainin 2, followed by cultivation for 48 hrs. Cell viability was measured in the same manner as in Example 1 (MTT assay) (FIGS. 13 to 15).

In data set [6] the test system is HCT-116 cell line. The experiment in a line: Fluorescence microscopy of FITC-labeled peptide, HCT-116 cell line. The following applies: 20 μg/ml, 1 hr, fluorescence microscope, FIG. 10. The format is cell-based, human. On the procedure:
(§1) To reconfirm the cell selectivity of the peptides of the present invention, each 2×10^5 of normal FSF and HaCat cells, and SM-MEL-5 cell line, HeLa cell line and HCT-116 cell line as cancer cells were cultured at 37° C. overnight, and FITC (fluorescein isothiocyanate)-labeled peptides, buforin IIB and magainin 2 were added thereto at a concentration of 20 μg/ml, followed by incubation for 1 hr. Each cell or cell line was washed with PBS, and observed under a fluorescence microscope (FIG. 10).

Data set [7] deals with normal HaCat cells. The data set can be described thus: Fluorescence microscopy of FITC-labeled peptide, HaCat cells. The following applies: 20 μg/ml, 1 hr, fluorescence microscope, FIG. 10. The format is cell-based, human. On the procedure:
as §1

The test system of data set [8] is HeLa cell line. The data set can be described thus: Fluorescence microscopy of FITC-labeled peptide, HeLa cell line. Conditions: 20 μg/ml, 1 hr, fluorescence microscope, FIG. 10. The format is cell-based, human. On the procedure: as §1
Data set [9] has as its system SM-MEL-5 cell line. The experiment in a line: Fluorescence microscopy of FITC-labeled peptide, SM-MEL-5 cell line. It is filed as cell-based, human. The following applies: 20 μg/ml, 1 hr, fluorescence microscope, FIG. 10. On the procedure:
as §1

For data set [10], the system named is normal FSF cells. The data set can be described thus: Fluorescence microscopy of FITC-labeled peptide, FSF cells. The format is cell-based, human. Conditions: 20 μg/ml, 1 hr, fluorescence microscope, FIG. 10. As to the method:
as §1

Four substances from patent publication US9067970B2, “Anticancer agents comprising peptides with cancer-specific toxicity” (Korea Advanced Institute of Science and Technology, priority 2010, dated 2015) can be followed below.

Where no end group is shown, it is not given here.

For the substance “APKAMKLLKKLLKLQKKGI-NH2 [NKC, APKAMKLLKKLLKLQKKGI-amine]”, the “viability of FSF cells (toxicity on normal cells)” value in [1] is on record as “little toxicity”. In [2], the “viability of erythrocytes (toxicity on normal cells)” value is “little toxicity”. Besides, the “viability of HaCat cells (toxicity on normal cells)” value in data set [3] is recorded as “little toxicity”.
Consider “APKAMRLLRRLLRLQKKGI-NH2 [NRC, APKAMRLLRRLLRLQKKGI-amide]”, for which the “viability of FSF cells (toxicity on normal cells)” value in data set [1] was “little toxicity”. In data set [2], the “viability of erythrocytes (toxicity on normal cells)” value is “little toxicity”. For the same substance, the “viability of HaCat cells (toxicity on normal cells)” value in data set [3] was “little toxicity”.
On to buforin IIb, for which, in data set [4], the “viability of cancer cells with increasing concentration of inhibitor of ganglioside biosynthesis” value was “increased”. The “cell viability with external addition of ganglioside” value in [5] (ganglioside 1 to 100 μg/ml, FIG. 13) was “high cell viability”. Further, the “cell viability with external addition of heparin” value in [5] (heparin 1 to 100 μg/ml, FIG. 15) is “high cell viability”. Further, the “cell viability with external addition of phosphatidylserine” value in data set [5] (phosphatidylserine 1 to 100 μg/ml, FIG. 14) is given as “high cell viability”. Moreover, the “detection of FITC-labeled peptide in HCT-116 cell line” value in data set [6] is on record as “in a large quantity”. Also, in data set [7], the “detection of FITC-labeled peptide in normal HaCat cells” value is “at a predetermined level”. The “detection of FITC-labeled peptide in HeLa cell line” value in data set [8] is listed as “in a large quantity”. Also, in data set [9], the “detection of FITC-labeled peptide in SM-MEL-5 cell line” value is given as “in a large quantity”. For the same substance, the “detection of FITC-labeled peptide in normal FSF cells” value in data set [10] is “rarely detected”.
Take magainin 2: the “detection of FITC-labeled peptide in HCT-116 cell line” value in data set [6] is “not detected”. The “detection of FITC-labeled peptide in normal HaCat cells” value in [7] is recorded as “not detected”. Further, in data set [8], the “detection of FITC-labeled peptide in HeLa cell line” value is given as “not detected”. Moreover, in data set [9], the “detection of FITC-labeled peptide in SM-MEL-5 cell line” value is reported as “not detected”. For the same substance, the “detection of FITC-labeled peptide in normal FSF cells” value in [10] was “not detected”.
